Reference: patent US20180002319A1, “MACROCYCLIC PICOLINAMIDE COMPOUNDS WITH FUNGICIDAL ACTIVITY” (DOW AGROSCIENCES LLC, priority 2014, published 2018)
Where two headings read alike, the source gives them in different places.

Columns and labels:
[1] = system: Zymoseptoria tritici; assay: Leaf Blotch of Wheat (SEPTTR) fungicidal activity; format: in vivo; conditions: wheat leaf blotch; for pest or weed control at 100 ppm: High Volume application; for pest or weed control at 121.5 g/ha: Low Volume application, 121.5 g/H
Protocol: Example A: Evaluation of Fungicidal Activity: Leaf Blotch of Wheat (Zymoseptoria tritici; Bayer Code […]) Technical grades of materials were dissolved in acetone, which were then mixed with nine volumes of H2O containing 110 ppm Triton X-100. The fungicide solutions were applied onto wheat seedlings using an automated booth sprayer to run-off. All sprayed plants were allowed to air dry prior to further handling. All fungicides were evaluated using the aforementioned method for their activity vs. all target diseases, unless stated otherwise. Wheat leaf blotch and brown rust activity were also evaluated using track spray applications, in which case the fungicides were formulated as EC formulations, containing 0.1% Trycol 5941 in the spray solutions. Wheat plants (variety Yuma) were grown from seed in a greenhouse in 50% mineral soil/50% soil-less Metro mix until the first leaf was fully emerged, with 7-10 seedlings per pot. These plants were inoculated with an aqueous spore suspension of Zymoseptoria tritici either prior to or after fungicide treatments. After inoculation the plants were kept in 100% relative humidity (one day in a dark dew chamber followed by two to three days in a lighted dew chamber at 20° C.) to permit spores to germinate and infect the leaf. The plants were then transferred to a greenhouse set at 20° C. for disease to develop. When disease symptoms were fully expressed on the 1st leaves of untreated plants, infection levels were assessed on a scale of 0 to 100 percent disease severity. Percent disease control was calculated using the ratio of disease severity on treated plants relative to untreated plants.

[2] = system: Puccinia triticina; assay: Wheat Brown Rust (PUCCRT) fungicidal activity; format: in vivo; conditions: for pest or weed control at 100 ppm: High Volume application; for pest or weed control at 121.5 g/ha: Low Volume application, 121.5 g/H
Protocol: Technical grades of materials were dissolved in acetone, which were then mixed with nine volumes of H2O containing 110 ppm Triton X-100. The fungicide solutions were applied onto wheat seedlings using an automated booth sprayer to run-off. All sprayed plants were allowed to air dry prior to further handling. All fungicides were evaluated using the aforementioned method for their activity vs. all target diseases, unless stated otherwise. Wheat leaf blotch and brown rust activity were also evaluated using track spray applications, in which case the fungicides were formulated as EC formulations, containing 0.1% Trycol 5941 in the spray solutions. Wheat plants (variety Yuma) were grown from seed in a greenhouse in 50% mineral soil/50% soil-less Metro mix until the first leaf was fully emerged, with 7-10 seedlings per pot. These plants were inoculated with an aqueous spore suspension of Zymoseptoria tritici either prior to or after fungicide treatments. After inoculation the plants were kept in 100% relative humidity (one day in a dark dew chamber followed by two to three days in a lighted dew chamber at 20° C.) to permit spores to germinate and infect the leaf. The plants were then transferred to a greenhouse set at 20° C. for disease to develop. When disease symptoms were fully expressed on the 1st leaves of untreated plants, infection levels were assessed on a scale of 0 to 100 percent disease severity. Percent disease control was calculated using the ratio of disease severity on treated plants relative to untreated plants. Example B: Evaluation of Fungicidal Activity: Wheat Brown Rust (Puccinia triticina; Bayer Code PUCCRT) Wheat plants (variety Yuma) were grown from seed in a greenhouse in 50% mineral soil/50% soil-less Metro mix until the first leaf was fully emerged, with 7-10 seedlings per pot. These plants were inoculated with an aqueous spore suspension of Puccinia triticina either prior to or after fungicide treatments. After inoculation the plants were kept in a dark dew room at 22° C. with 100% relative humidity overnight to permit spores to germinate and infect the leaf. The plants were then transferred to a greenhouse set at 24° C. for disease to develop. Fungicide formulation, application and disease assessment followed the procedures as described in the Example A.

[3] = 24 h, 1 day protectant, read-out: SEPTTR disease control, 1DP (1 Day Protectant)
[4] = 72 h, 3 day curative, read-out: SEPTTR disease control, 3DC (3 Day Curative)
[5] = 24 h, 1 day protectant, read-out: PUCCRT disease control, 1DP (1 Day Protectant)
[6] = 72 h, 3 day curative, read-out: PUCCRT disease control, 3DC (3 Day Curative)

Row | SMILES | pest or weed control at 100 ppm [1, 3] | pest or weed control at 121.5 g/ha [1, 3] | pest or weed control at 121.5 g/ha [1, 4] | pest or weed control at 100 ppm [2, 5] | pest or weed control at 121.5 g/ha [2, 5] | pest or weed control at 100 ppm [2, 6] | pest or weed control at 100 ppm [1, 4] | pest or weed control at 121.5 g/ha [2, 6]
1 | COc1ccnc(C(=O)N[C@H]2COCC[C@H](OCc3ccccc3)[C@@H](OCc3ccccc3)[C@H](C)OC2=O)c1OCOC(C)=O [Compound 1] | > 80% | > 80% | < 80% | > 80% | > 80% | > 80% | – | –
2 | CCCCO[C@H]1CCOC[C@H](NC(=O)c2nccc(OC)c2OCOC(C)=O)C(=O)O[C@@H](C)[C@@H]1OCC(C)C [Compound 7] | > 80% | – | – | > 80% | – | > 80% | < 80% | –
3 | COc1ccnc(C(=O)N[C@H]2CCCC[C@H](OCc3ccccc3)[C@@H](OCc3ccccc3)[C@H](C)OC2=O)c1OCOC(C)=O [Compound 8] | > 80% | > 80% | > 80% | > 80% | > 80% | > 80% | < 80% | > 80%
4 | COc1ccnc(C(=O)N[C@H]2CCCC[C@H](OCc3ccccc3)[C@@H](OCc3ccccc3)[C@H](C)OC2=O)c1OC(C)=O [Compound 9] | > 80% | > 80% | > 80% | > 80% | > 80% | > 80% | < 80% | < 80%
5 | COc1ccnc(C(=O)N[C@H]2CCCC[C@H](Oc3ccccc3)[C@@H](OCC(C)C)[C@H](C)OC2=O)c1OCOC(C)=O [Compound 10] | > 80% | – | – | > 80% | – | > 80% | > 80% | –
6 | COc1ccnc(C(=O)N[C@H]2CCCC[C@H](OC)[C@@H](Oc3ccccc3)[C@H](C)OC2=O)c1OCOC(C)=O [Compound 11] | > 80% | > 80% | > 80% | > 80% | > 80% | > 80% | > 80% | > 80%
7 | COc1ccnc(C(=O)N[C@H]2CCCC[C@H](OC)[C@@H](OCC(C)C)[C@H](C)OC2=O)c1OCOC(C)=O [Compound 12] | > 80% | – | – | > 80% | – | > 80% | > 80% | –
8 | COc1ccnc(C(=O)N[C@H]2CCCC[C@H](OCC(C)C)[C@@H](Oc3ccccc3)[C@H](C)OC2=O)c1OCOC(C)=O [Compound 13] | > 80% | > 80% | > 80% | > 80% | > 80% | > 80% | > 80% | > 80%
9 | COc1ccnc(C(=O)N[C@H]2CCCC[C@H](OCC(C)C)[C@@H](OCC(C)C)[C@H](C)OC2=O)c1OCOC(C)=O [Compound 14] | > 80% | > 80% | < 80% | > 80% | > 80% | > 80% | > 80% | < 80%
10 | CCCCCO[C@H]1[C@H](C)OC(=O)[C@@H](NC(=O)c2nccc(OC)c2OCOC(C)=O)CCCC[C@@H]1OC(=O)c1ccccc1 [Compound 15] | > 80% | > 80% | > 80% | > 80% | > 80% | > 80% | > 80% | < 80%
11 | COc1ccnc(C(=O)N[C@H]2CCOC[C@H](Cc3ccccc3)[C@@H](OCC(C)C)[C@H](C)OC2=O)c1OCOC(C)=O [Compound 16] | > 80% | < 80% | < 80% | > 80% | > 80% | > 80% | < 80% | < 80%
12 | COc1ccnc(C(=O)N[C@H]2CCCC[C@H](OC)[C@@H](OC)[C@H](C)OC2=O)c1OCOC(C)=O [Compound 22] | – | – | < 80% | – | > 80% | – | – | > 80%
13 | CCCO[C@H]1CCCC[C@H](NC(=O)c2nccc(OC)c2OCOC(C)=O)C(=O)O[C@@H](C)[C@@H]1Oc1ccccc1 [Compound 23] | – | > 80% | > 80% | – | > 80% | – | – | > 80%
14 | COc1ccnc(C(=O)N[C@H]2CCCC[C@H](Cc3ccccc3)[C@@H](OCC(C)C)[C@H](C)OC2=O)c1OCOC(C)=O [Compound 24] | – | > 80% | > 80% | – | > 80% | – | – | < 80%
15 | COc1ccnc(C(=O)N[C@H]2CCCC[C@H](Oc3ccccc3)[C@@H](Oc3ccccc3)[C@H](C)OC2=O)c1OC(C)=O [Compound 25] | – | > 80% | < 80% | – | > 80% | – | – | < 80%
16 | CCCO[C@H]1CCCC[C@H](NC(=O)c2nccc(OC)c2OC(C)=O)C(=O)O[C@@H](C)[C@@H]1Oc1ccccc1 [Compound 26] | – | > 80% | > 80% | – | > 80% | – | – | > 80%
17 | COc1ccnc(C(=O)N[C@H]2CCCC[C@H](OC)[C@@H](OC)[C@H](C)OC2=O)c1OC(C)=O [Compound 27] | – | < 80% | – | – | > 80% | – | – | > 80%
18 | COc1ccnc(C(=O)N[C@H]2CCCC[C@H](OC)[C@@H](OCC(C)C)[C@H](C)OC2=O)c1OC(C)=O [Compound 28] | – | < 80% | > 80% | – | > 80% | – | – | > 80%
19 | COc1ccnc(C(=O)N[C@H]2CCCC[C@@H]3OC(C)(C)O[C@H]3[C@H](C)OC2=O)c1OC(C)=O [Compound 29] | – | < 80% | > 80% | – | > 80% | – | – | > 80%
20 | COc1ccnc(C(=O)N[C@H]2CCCC[C@H](OC3CCCC3)[C@@H](OC)[C@H](C)OC2=O)c1OCOC(C)=O [Compound 35] | – | – | – | – | > 80% | – | – | < 80%
21 | COc1ccnc(C(=O)N[C@H]2CCOC[C@H](OCC(C)C)[C@@H](OCC(C)C)[C@H](C)OC2=O)c1OCOC(C)=O [Compound 43] | – | – | – | – | > 80% | – | – | < 80%
22 | COc1ccnc(C(=O)N[C@H]2CCCC[C@H](OC)[C@@H](OC)[C@H](C)OC2=O)c1O [Compound 99] | – | – | – | > 80% | – | – | – | –
